Experimental data reported in PMC10762035, “Molecular basis of human trace amine-associated receptor 1 activation” (Nature Communications, 2024).
Substitutions are numbered along the chain they refer to. “And” between values parts separate entries of the source, which are not always exact repeats. Equal values may be shown once. Read-outs that look alike come from different tables or passages of the source.

Experiments:
hTA1 T194A = biological target: T1, hTA1 T194A (Homo sapiens, UniProt Q96RJ0, T194A); experiment: GloSensor cAMP accumulation assay, T194A mutant; conditions: for cAMP accumulation response, individual replicate values of the concentration-response curve: hTA1 T194A, log[Agonist], Supplementary Figure 5 source data
T1 sequence (Q96RJ0 1-339 T194A): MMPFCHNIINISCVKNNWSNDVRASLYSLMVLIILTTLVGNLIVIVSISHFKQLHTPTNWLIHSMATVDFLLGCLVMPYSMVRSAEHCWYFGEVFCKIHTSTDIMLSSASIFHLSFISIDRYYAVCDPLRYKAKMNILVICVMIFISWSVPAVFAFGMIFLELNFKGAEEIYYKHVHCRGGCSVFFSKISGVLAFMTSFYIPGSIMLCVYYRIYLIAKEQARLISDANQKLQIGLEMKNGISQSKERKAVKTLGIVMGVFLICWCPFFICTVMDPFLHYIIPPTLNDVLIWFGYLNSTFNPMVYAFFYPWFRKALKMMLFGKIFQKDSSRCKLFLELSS

hTA1 C88/178S = biological target: T2, hTA1 C88/178S (Homo sapiens, UniProt Q96RJ0, C178S/C88S); experiment: GloSensor cAMP accumulation assay, C88S/C178S double mutant; assay type: cell-based; conditions: for Normalized Luminescence Counts (N=2): log[Compound], single replicate values
T2 construct: expressed in transfected cells; host or cells: HEK293T
T2 sequence (Q96RJ0 1-339 C88S/C178S): T1 sequence (Q96RJ0 1-339 T194A) with C88S, C178S, A194T

hTA1 W264F = biological target: T3, hTA1 W264F (Homo sapiens, UniProt Q96RJ0, W264F); experiment: GloSensor cAMP accumulation assay, W264F mutant; assay type: cell-based;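 also: cells transiently transfected with receptor plus GloSensor, luminescence read 30 min after agonist addition at room temperature, concentration-response curves fitted by log(agonist) vs response regression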
T3 construct: expressed in transfected cells; host or cells: HEK293T
T3 sequence (Q96RJ0 1-339 W264F): T1 sequence (Q96RJ0 1-339 T194A) with A194T, W264F

[1] = C88S, C178S, each row is one independent experiment, 3 replicates
[2] = W246F mutant (so in the source) minus WT average

Which “cAMP accumulation response, individual replicate values of the concentration-response curve” value (“cAMP accumulation response” for short) (hTA1 T194A; M = -11.522) does the source give for `NCCc1ccc(O)cc1` [TYR, tyramine] here?
The value was -1.557 and 0.8695 and -1.4224 and -1.105 (2×) and -0.7099 and 0.09457 and 0.05017 and 0.4053.

And the “cAMP accumulation response” value (hTA1 T194A; M = -12)?
Its value is -0.7483 (2×) and -1.288 and -0.9074 (2×) and -0.3148 and -0.4826 and -0.1718 and -0.2162.

What about the “cAMP accumulation response” value (hTA1 T194A; M = -12.522) of the same molecule?
The value was -0.07421 and 1.139 and 0.4651 and -1.105 (2×) and -0.5123 and -0.08302 and -0.2606 and 0.005772.

What about the EC50 (hTA1 T194A; pEC50 values, Mean, T149A (so in the source), single experiments (3 replicates each)) of the same molecule?
Its EC50 is 8.01 nM and 26.8 nM and 14.3 nM.

And the EC50 (hTA1 T194A; pEC50 ± SEM, T194A)?
The EC50 was 14.5 nM.

And the Emax (hTA1 T194A; read-out: Span ± SEM (Emax normalized to β-PEA), T194A)?
The Emax was 109 ± 4.66%.

And the EC50 (hTA1 C88/178S; C88/178S, n=2, read-out: EC50)?
Its EC50 is 516 nM.

What about the “ΔEmax values (each mutant value - WT average), Mean” value (hTA1 C88/178S; [1]) of the same molecule?
The value was 5.171 and -4.429.

And the “ΔpEC50 values (each mutant value - WT average), Mean” value (hTA1 C88/178S; [1])?
The value was -0.1652 and -0.02439.

And the EC50 (hTA1 C88/178S; C88S, C178S, each row is one independent experiment, 3 replicates, read-out: pEC50 values, Mean (converted))?
Its EC50 is 607 nM and 439 nM.

And the “Normalized Luminescence Counts (N=2)” value (hTA1 C88/178S; C88S, C178S, M = -5)?
The value was 80.5108 and 118.73 and 96.3411 and 73.7167 and 119.633 and 101.508.

What about the “Normalized Luminescence Counts (N=2)” value (hTA1 C88/178S; C88S, C178S, M = -5.522) of the same molecule?
The value was 83.5638 and 94.9277 and 84.0161 and 70.847 and 65.5606 and 81.5707.

And the “Normalized Luminescence Counts (N=2)” value (hTA1 C88/178S; C88S, C178S, M = -6)?
The value was 61.2318 and 70.3907 and 58.4615 and 74.6229 and 67.8262 and 50.6077.

What about the “Normalized Luminescence Counts (N=2)” value (hTA1 C88/178S; C88S, C178S, M = -6.522) of the same molecule?
Its value is 35.2248 and 33.0764 and 35.0552 and 41.5453 and 51.665 and 30.8216.

And the “Normalized Luminescence Counts (N=2)” value (hTA1 C88/178S; C88S, C178S, M = -7)?
The value was 17.4722 and 16.0588 and 18.7726 and 21.6082 and 20.853 and 15.4156.

And the “Normalized Luminescence Counts (N=2)” value (hTA1 C88/178S; C88S, C178S, M = -7.522)?
Its value is 4.582 and 7.069 and 6.674 and 4.541 and 4.692 and 3.332.

What about the “Normalized Luminescence Counts (N=2)” value (hTA1 C88/178S; C88S, C178S, M = -8) of the same molecule?
The value was 0.3416 and 1.077 and 0.3981 and 2.124 and 2.577 and 4.239.

What about the “Normalized Luminescence Counts (N=2)” value (hTA1 C88/178S; C88S, C178S, M = -8.522) of the same molecule?
Its value is 0.2285 and 0.4547 and 1.1331 and 0.9158 and 0.6137 and 2.577.

What about the “Normalized Luminescence Counts (N=2)” value (hTA1 C88/178S; C88S, C178S, M = -9) of the same molecule?
The value was -0.6195 and -0.1107 and 0.3416 and -1.501 and -1.35 and 3.6345.

And the “Normalized Luminescence Counts (N=2)” value (hTA1 C88/178S; C88S, C178S, M = -9.522)?
The value was -0.5065 and -0.563 and -0.05417 and -0.8967 (2×) and -1.652.

What about the “Normalized Luminescence Counts (N=2)” value (hTA1 C88/178S; C88S, C178S, M = -10) of the same molecule?
The value was -0.1107 and -0.9588 (2×) and -1.35 and -0.4436 and -0.1415.

And the “Normalized Luminescence Counts (N=2)” value (hTA1 C88/178S; C88S, C178S, M = -10.522)?
Its value is -0.6195 and -0.1672 and 0.0589 and -1.954 and -1.048 and 1.067.

What about the “Normalized Luminescence Counts (N=2)” value (hTA1 C88/178S; C88S, C178S, M = -11) of the same molecule?
The value was -0.05417 and 0.5677 and 0.3981 and -1.652 and -0.8967 and 0.7648.

And the “Normalized Luminescence Counts (N=2)” value (hTA1 C88/178S; C88S, C178S, M = -11.522)?
Its value is 0.7373 and 0.9635 and 0.285 and -0.8967 (2×) and 0.1606.

And the “Normalized Luminescence Counts (N=2)” value (hTA1 C88/178S; C88S, C178S, M = -12)?
The value was -0.563 and 1.02 and 0.7939 and -0.1415 and -1.048 and 0.7648.

And the “Normalized Luminescence Counts (N=2)” value (hTA1 C88/178S; C88S, C178S, M = -12.522)?
Its value is 0.2285 and 0.8504 and 0.3981 and -0.8967 and -0.4436 and -1.199.

And the “Emax values, Mean” value (hTA1 C88/178S; C88S, C178S, normalized (β-PEA = 100), each row is one independent experiment, 3 replicates)?
Its value is 104.155 and 94.5547.

What about the Emax (hTA1 C88/178S; read-out: Span ± SEM (Emax normalized to β-PEA)) of the same molecule?
Its Emax is 99.3 ± 4.8%.

What about the “ΔEmax values (each mutant value - WT average)” value (hTA1 W264F; [2]) of the same molecule?
Its value is 2.816.

What about the “ΔpEC50 values (each mutant value - WT average)” value (hTA1 W264F; [2]) of the same molecule?
Its value is -1.54 and -1.2519.

And the EC50 (hTA1 W264F; W246F mutant (so in the source), each line an independent experiment, 3 replicates, read-out: pEC50 values (Mean) (converted))?
Its EC50 is 14400 nM and 7410 nM.

What about the “Emax values, Mean” value (hTA1 W264F; W246F mutant (so in the source), β-PEA = 100, each line an independent experiment, 3 replicates) of the same molecule?
Its value is 99.2183.

And the Emax (hTA1 W264F; W246F mutant (so in the source), β-PEA = 100, each line an independent experiment, 3 replicates, read-out: Emax values (Mean))?
Its Emax is 102%.

What about the EC50 (hTA1 W264F; W264F, n=2, read-out: EC50) of the same molecule?
The EC50 was 10300 nM.

And the Emax (hTA1 W264F; W264F, n=2, read-out: Span ± SEM (Emax normalized to β-PEA))?
Its Emax is 101 ± 1.29%.
